Results published in US9198879B2, “Pharmacologically optimized multimodal drug delivery system for nordihydroguiaretic acid (NDGA)” (Napo Pharmaceuticals, Inc., priority 2011, dated 2015).
Entries after “also recorded” stand apart in the source; their conditions may differ.

Test system: fructose-fed and fat-fed/STZ rat models
Experiment: NDGA versus metformin at equimolar doses in fructose-fed and fat-fed/STZ rat models
Assay type: in vivo
Details: equimolar doses of NDGA or metformin
Source text: NDGA has been studied by administering it orally to animals to determine its effectiveness for lowering glucose, free fatty acid (FFA) and triglyceride levels. […] See Example 2 below. […] There was no significant baseline difference between the NDGA and metformin groups.
In one such study, the effects of NDGA and metformin as a control drug for treatment of diabetes were studied in a non-diabetic model of hypertriglyceridemia (fructose-fed) and a non-genetic, (i.e., streptozotocin (STZ) treated) model of diabetes. […] See FIGS. 2 (glucose) and 3 (triglycerides).

Compound: CN(C)C(=N)N=C(N)N [metformin]
- change in insulin concentrations: without changing insulin concentration; also recorded: without any change in insulin concentrations
- glucose lowering in comparison to the vehicle control: significantly lowered glucose
- triglyceride lowering in comparison to the vehicle control: significantly lowered triglycerides
